# Source: US8541592B2, “Inhibitors of 11-beta-hydroxysteroid dehydrogenase type 1” (Amgen Inc., priority 2005, dated 2013)
# Target: T1, 11β-HSD1 (human enzyme) (Homo sapiens, UniProt P28845)
# T1 construct: made in house
# Test: Enzyme Assay (SPA, 3H-cortisone), human enzyme prep
# Type: biochemical
# Settings: species of enzyme (human or mouse) not stated
# T1 sequence (P28845 whole entry): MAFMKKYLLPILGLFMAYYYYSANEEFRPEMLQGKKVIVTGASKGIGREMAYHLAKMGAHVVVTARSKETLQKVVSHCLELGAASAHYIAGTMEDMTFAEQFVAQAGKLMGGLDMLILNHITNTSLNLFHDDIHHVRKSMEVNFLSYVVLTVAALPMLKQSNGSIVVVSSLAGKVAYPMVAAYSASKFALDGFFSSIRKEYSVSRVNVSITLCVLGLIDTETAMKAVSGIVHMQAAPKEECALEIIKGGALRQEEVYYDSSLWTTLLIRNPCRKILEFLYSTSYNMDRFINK
compound,measurement,value
"CC1(CC2CCOCC2)SC(N[C@H]2C[C@@H]3CC[C@H]2C3)=NC1=O (stereo partly drawn) [2-((1S,2S,4R)-bicyclo[2.2.1]heptan-2-ylamino)-5-methyl-5-((tetrahydro-2H-pyran-4-yl)methyl)thiazol-4(5H)-one]",IC50,< 20 nM
"CC(C)C1(C)SC(Nc2ccccc2Cl)=NC1=O (stereo not shown) [2-((2-chlorophenyl)amino)-5-methyl-5-(1-methylethyl)-1,3-thiazol-4(5H)-one]",IC50,< 20 nM
Cc1ccccc1NC1=NC(=O)C(C2CCCC2)S1 (stereo not shown) [2-(o-toluidino)-5-cyclopentylthiazol-4(5H)-one],IC50,< 20 nM
"CC(C)C1(C)SC(Nc2ccccc2C(F)(F)F)=NC1=O (stereo not shown) [5-methyl-5-(1-methylethyl)-2-((2-(trifluoromethyl)phenyl)amino)-1,3-thiazol-4(5H)-one]",IC50,< 20 nM
